Peptide text beside a SMILES is read from it.
Columns and labels:
[1] = tested on: advanced glycation end-products (AGEs) on human albumin; assay: Inhibition of AGE formation: fluorescence of human albumin incubated with glucose; type: biochemical; details: human albumin 50 g/l, glucose 500 mM, compound 50 mM, 37° C., 20 days; ex 370 nm, em 440 nm
Protocol: Human albumin at physiological concentration (50 g/l) is incubated with glucose (500 mM in phosphate buffer at 100 mM, pH=7.4) at 37° C. for 20 days in the presence or absence of the compounds tested (50 mM). A measurement of the fluorescence (reading at 440 nm after excitation at 370 nm) is then carried out on each sample. The results are expressed in the form of a fluorescence read (sample)/maximum fluorescence observed (control without scavenger compound, D=20) ratio.
A solution of human albumin (50 g/l) and of glucose (500 mM) in phosphate buffer (100 mM, pH=7.4) is prepared. 1000 μl of the previous solution are then immediately charged to tubes, each containing one of the compounds tested (50 μmol). The resulting solutions are homogenized (vortex for 10 sec) and then immediately filtered through a sterile 0.2 μm membrane into sterile capped Eppendorf tubes (1.5 ml), under a vertical laminar flow filtering hood. The tubes are then stoppered and placed at 37° C., in the dark, for 20 days. After a return to ambient temperature (22° C.), a measurement of the fluorescence (λex=370 nm, λem=440 nm) is carried out on 200 μl of each sample.

[2] = Scavenging of methylglyoxal (MGO) generated from glucose incubated at 37° C., LC-MS assay after 2,3-diaminonaphthalene derivatization; details: for MGO scavenging activity (in words): compound 100 μM added on 7th day, FIG. 2; for level of MGO observed after 14 days: glucose 50 mM, phosphate buffer pH 7.4, 37° C., compound added on 7th day, final concentration 100 μM
Protocol: (§1) An aqueous solution of glucose (50 mM in phosphate buffer at 100 mM, pH=7.4) is incubated at 37° C. for 14 days in order to “naturally” generate glyoxal (GO) and methylglyoxal (MGO). The compound tested is introduced on the 7th day (final concentration=100 μM). The GO and MGO concentrations of the medium are measured at regular intervals by LC-MS assaying, after derivatization with 2,3-diaminonaphthalene, in order to determine the effect of the compound tested.
(§2) The results of the assays are compared with those obtained without the addition of scavenger compound (control) and with those obtained during the addition of a reference compound (aminoguanidine, D-Dap, D-Dap-L-Leu, 8-hydroxyquinoline).
(§3) A solution S0 of glucose (50 mM) in phosphate buffer (100 mM, pH=7.4) is prepared and then filtered through a sterile 0.2 μm membrane into a sterile Falcon tube, under a vertical laminar flow filtering hood. 1000 μl of solution S0 are then charged to several sterile capped Eppendorf tubes (1.5 ml) which are then stoppered and placed at 37° C., in the dark, for 14 days (“control” series). The rest of the solution S0 is incubated in the same way, in a Falcon tube. The Eppendorf tubes are then removed, one by one, at regular intervals (approximately 24 h) and are immediately placed at −20° C. while awaiting analysis.
(§4) On D=7, an aqueous solution S1 of the compound tested (5 mM) is prepared and then filtered through a sterile 0.2 μm membrane into a sterile Falcon tube, under a vertical laminar flow filtering hood. A mixture of the solution S1 (140 μl) and of the remaining solution S0, incubated for 7 days at 37° C. (6860 μl), is then prepared before being divided up between 6 sterile Eppendorf tubes (6×1000 μl) which are subsequently stoppered and placed at 37° C., in the dark, for 7 days (“test” series). These tubes are removed, one by one, at regular intervals (approximately 24 h) and are immediately placed at −20° C. while awaiting analysis. On D=14, the tubes of the “control” and “test” series are thawed and are each treated with 100 μl of a solution of 2,3-diaminonaphthalene (10 mM) in order to derivatize the GO and the MGO, respectively in the form of GO-DAN and of MGO-DAN. After homogenization (vortex for 10 sec), the tubes are left to stand for 24 h, at 20° C., in the dark. The GO-DAN and the MGO-DAN are then assayed in each sample by LC-MS (Shimadzu LCMS-2020), by external calibration carried out with standard solutions of GO-DAN and of MGO-DAN, according to the following conditions. Column: Shim-pack XR-ODS II (75×2 mm, 80 Å), temperature: 40° C., eluent: water/methanol (50/50)+0.1% of formic acid, flow rate: 300 μl/min, analysis time: 10 min, injection volume: 1 μl, detection: ESI+ in SIM mode (m/z=181.1 and 195.1) with the following parameters: interface voltage=4.5 kV, DL voltage=10 V, Q-array DC=0 V, Q-array RF=40 V (for m/z=181.1) or 10 V (for m/z=195.1). The GO-DAN and MGO-DAN compounds are respectively detected at the retention times of 3.9 min and 5.4 min.

[3] = Scavenging of glyoxal (GO) generated from glucose incubated at 37° C., LC-MS assay after 2,3-diaminonaphthalene derivatization; details: for GO scavenging activity (in words): compound 100 μM added on 7th day, FIG. 1; for level of GO observed after 14 days: glucose 50 mM, phosphate buffer pH 7.4, 37° C., compound added on 7th day, final concentration 100 μM
Protocol: as §1, §2, §3, §4

Row | Structure (SMILES) | relative fluorescence (fluorescence read/maximum fluorescence of control D=20) [1] [%] | MGO scavenging activity (in words) [2] | GO scavenging activity (in words) [3] | level of MGO observed after 14 days [2] [µM] | level of GO observed after 14 days [3] [µM]
1 | Oc1cccc2cccnc12 [8-hydroxyquinoline] | 40 | – | – | – | –
2 | CC1CCN(C(=O)[C@H](N)CN)CC1 [Compound 4c] | – | activity close to or even greater than that of the reference compound, aminoguanidine | activity close to or even greater than that of the reference compound, aminoguanidine | – | –
3 | NC[C@@H](N)C(=O)N1CCOCC1 [Compound 4e] | 19 | – | – | – | –
4 | NC[C@@H](N)C(=O)N1CCN(C2CCCCC2)CC1 [Compound 4h, (2R)-2,3-diamino-1-(4-cyclohexylpiperazin-1-yl)propan-1-one] | – | activity close to or even greater than that of the reference compound, aminoguanidine | activity close to or even greater than that of the reference compound, aminoguanidine | – | –
5 | NC[C@@H](N)C(=O)N1CCN(C(=O)[C@H](N)CN)CC1 [Compound 6a, (2R,2′R)-1,1′-(piperazine-1,4-diyl)bis(2,3-diaminopropan-1-one)] | – | activity close to or even greater than that of the reference compound, aminoguanidine | activity close to or even greater than that of the reference compound, aminoguanidine | – | –
6 | NC[C@@H](N)C(=O)N1CCN(Cc2ccc(O)c3ncccc23)CC1 [Compound 11, (2R)-2,3-diamino-1-{4-[(8-hydroxyquinolin-5-yl)methyl]piperazin-1-yl}propan-1-one] | 3 | good capacity for scavenging of GO and of MGO | good capacity for scavenging of GO and of MGO | 0.19 | 3.0
7 | NC[C@@H](N)C(=O)N1CCN(C(=O)Cc2ccc(O)c3ncccc23)CC1 [Compound 13, (2R)-2,3-diamino-1-{4-[2-(8-hydroxyquinolin-5-yl)acetyl]piperazin-1-yl}propan-1-one] | 2 | good capacity for scavenging of GO and of MGO | good capacity for scavenging of GO and of MGO | 0.12 | 2.6
8 | C[C@@H](N)C(=O)N1CCOCC1 [D-Ala-Morpholine] | 78 | – | – | – | –
9 | CC(C)C[C@H](NC(=O)[C@H](N)CN)C(=O)O [D-Dap-L-Leu] (HELM PEPTIDE1{[NC[C@@H](N)C(=O)[*:2]].L}$$$$V2.0) | 43 | – | – | – | –
10 | N=C(N)NN [aminoguanidine, reference compound] | 3 | – | – | 1.20 | 68.4
11 | NCCC(=O)N[C@@H](Cc1cnc[nH]1)C(=O)O [carnosine] | 60 | – | – | – | –
